# Experimental data reported in PubChem BioAssay AID1918932 (Molecular Pharmacology Branch, DTP, NCI, 2023).
# Test system: 171881-019-R-J1-PDC complex spheroid viability
# Assay: Anticancer human tumor 171881-019-R-J1-PDC patient-derived invasive breast carcinoma cell line growth inhibition
# Settings: for IC50: curve of first compound; for viability, T/C: stronger effect = lower value
# Method in brief: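 Multicellular complex spheroids of tumor cells with human endothelial cells (HUVEC) and mesenchymal stem cells; the LSD1 inhibitor iadademstat was combined with standard-of-care or investigational agents. Top concentration at or near clinical Cmax, half-log dilutions; final DMSO ≤0.25%.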
# [1] = second compound 0.1 µM, first compound 0.00949 µM
# [2] = second compound 0.1 µM, first compound 0.03 µM
# [3] = second compound 0.1 µM, first compound 0.0949 µM
# [4] = second compound 0.1 µM, first compound 0.3 µM
# [5] = second compound 0.316 µM, first compound 0.00949 µM
# [6] = second compound 0.316 µM, first compound 0.03 µM
# [7] = second compound 0.316 µM, first compound 0.0949 µM
# [8] = second compound 0.316 µM, first compound 0.3 µM
# [9] = second compound 1 µM, first compound 0.00949 µM
# [10] = second compound 1 µM, first compound 0.03 µM
# [11] = second compound 1 µM, first compound 0.0949 µM
# [12] = second compound 1 µM, first compound 0.3 µM
# [13] = second compound 3.16 µM, first compound 0.00949 µM
# [14] = second compound 3.16 µM, first compound 0.03 µM
# [15] = second compound 3.16 µM, first compound 0.0949 µM
# [16] = second compound 3.16 µM, first compound 0.3 µM
# [17] = second compound 10 µM, first compound 0.00949 µM
# [18] = second compound 10 µM, first compound 0.03 µM
# [19] = second compound 10 µM, first compound 0.0949 µM
# [20] = second compound 10 µM, first compound 0.3 µM
# 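Note: spheroids exposed to agents for 7 days after 3 days growth.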
smiles,measurement,setting,value
CCN(c1cc(-c2ccc(CN3CCOCC3)cc2)cc(C(=O)NCc2c(C)cc(C)[nH]c2=O)c1C)C1CCOCC1 + NC1CCC(NC2CC2c2ccccc2)CC1,IC50,second compound 0.1 µM,2670 nM
same,IC50,second compound 0.316 µM,2850 nM
same,IC50,second compound 1 µM,2680 nM
same,IC50,second compound 3.16 µM,2730 nM
same,IC50,second compound 10 µM,2880 nM
same,"viability, T/C",[1],76.3%
same,"viability, T/C",[2],85%
same,"viability, T/C",[3],81.3%
same,"viability, T/C",[4],101%
same,"viability, T/C","second compound 0.1 µM, first compound 0.949 µM",74.1%
same,"viability, T/C","second compound 0.1 µM, first compound 3 µM",47.3%
same,"viability, T/C",[5],84.7%
same,"viability, T/C",[6],78.2%
same,"viability, T/C",[7],72.6%
same,"viability, T/C",[8],94.3%
same,"viability, T/C","second compound 0.316 µM, first compound 0.949 µM",76.6%
same,"viability, T/C","second compound 0.316 µM, first compound 3 µM",48.8%
same,"viability, T/C",[9],69.2%
same,"viability, T/C",[10],77.3%
same,"viability, T/C",[11],73.6%
same,"viability, T/C",[12],88.7%
same,"viability, T/C","second compound 1 µM, first compound 0.949 µM",79.9%
same,"viability, T/C","second compound 1 µM, first compound 3 µM",47%
same,"viability, T/C",[13],80.6%
same,"viability, T/C",[14],81.7%
same,"viability, T/C",[15],84.9%
same,"viability, T/C",[16],81.8%
same,"viability, T/C","second compound 3.16 µM, first compound 0.949 µM",70.3%
same,"viability, T/C","second compound 3.16 µM, first compound 3 µM",48.3%
same,"viability, T/C",[17],80.4%
same,"viability, T/C",[18],75.1%
same,"viability, T/C",[19],76.5%
same,"viability, T/C",[20],90.7%
same,"viability, T/C","second compound 10 µM, first compound 0.949 µM",77.9%
same,"viability, T/C","second compound 10 µM, first compound 3 µM",49%
Nc1ncn(C2CC(O)C(CO)S2)c(=O)n1 (stereo not given) + NC1CCC(NC2CC2c2ccccc2)CC1,IC50,second compound 0.1 µM,193 nM
same,IC50,second compound 0.316 µM,175 nM
same,IC50,second compound 1 µM,192 nM
same,IC50,second compound 3.16 µM,202 nM
same,IC50,second compound 10 µM,229 nM
same,"viability, T/C","second compound 0.1 µM, first compound 0.000949 µM",85.7%
same,"viability, T/C","second compound 0.1 µM, first compound 0.003 µM",82.5%
same,"viability, T/C",[1],94.3%
same,"viability, T/C",[2],105%
same,"viability, T/C",[3],70.9%
same,"viability, T/C",[4],37.2%
same,"viability, T/C","second compound 0.316 µM, first compound 0.000949 µM",91.2%
same,"viability, T/C","second compound 0.316 µM, first compound 0.003 µM",75.8%
same,"viability, T/C",[5],90.9%
same,"viability, T/C",[6],116%
same,"viability, T/C",[7],66.4%
same,"viability, T/C",[8],35.7%
same,"viability, T/C","second compound 1 µM, first compound 0.000949 µM",73.4%
same,"viability, T/C","second compound 1 µM, first compound 0.003 µM",84%
same,"viability, T/C",[9],94.8%
same,"viability, T/C",[10],101%
same,"viability, T/C",[11],66.8%
same,"viability, T/C",[12],39.3%
same,"viability, T/C","second compound 3.16 µM, first compound 0.000949 µM",85.1%
same,"viability, T/C","second compound 3.16 µM, first compound 0.003 µM",87.5%
same,"viability, T/C",[13],111%
same,"viability, T/C",[14],109%
same,"viability, T/C",[15],66.6%
same,"viability, T/C",[16],41.3%
same,"viability, T/C","second compound 10 µM, first compound 0.000949 µM",85.4%
same,"viability, T/C","second compound 10 µM, first compound 0.003 µM",90.8%
same,"viability, T/C",[17],98.8%
same,"viability, T/C",[18],93.8%
same,"viability, T/C",[19],69.1%
same,"viability, T/C",[20],44.1%
O=C(C=Cn1cnc(-c2cc(C(F)(F)F)cc(C(F)(F)F)c2)n1)NNc1cnccn1 + NC1CCC(NC2CC2c2ccccc2)CC1,IC50,second compound 0.1 µM,< 3.16 nM
same,IC50,second compound 0.316 µM,< 3.16 nM
same,IC50,second compound 1 µM,< 3.16 nM
same,IC50,second compound 3.16 µM,< 3.16 nM
same,IC50,second compound 10 µM,< 3.16 nM
same,"viability, T/C","second compound 0.1 µM, first compound 0.00316 µM",20%
same,"viability, T/C","second compound 0.1 µM, first compound 0.01 µM",14.8%
same,"viability, T/C","second compound 0.1 µM, first compound 0.0316 µM",5.39%
same,"viability, T/C","second compound 0.1 µM, first compound 0.1 µM",2.15%
same,"viability, T/C","second compound 0.1 µM, first compound 0.316 µM",2.24%
same,"viability, T/C","second compound 0.1 µM, first compound 1 µM",2.08%
same,"viability, T/C","second compound 0.316 µM, first compound 0.00316 µM",20.9%
same,"viability, T/C","second compound 0.316 µM, first compound 0.01 µM",14.6%
same,"viability, T/C","second compound 0.316 µM, first compound 0.0316 µM",6.07%
same,"viability, T/C","second compound 0.316 µM, first compound 0.1 µM",2.35%
same,"viability, T/C","second compound 0.316 µM, first compound 0.316 µM",6.21%
same,"viability, T/C","second compound 0.316 µM, first compound 1 µM",2.25%
same,"viability, T/C","second compound 1 µM, first compound 0.00316 µM",22.7%
same,"viability, T/C","second compound 1 µM, first compound 0.01 µM",16.1%
same,"viability, T/C","second compound 1 µM, first compound 0.0316 µM",6.8%
same,"viability, T/C","second compound 1 µM, first compound 0.1 µM",2.59%
same,"viability, T/C","second compound 1 µM, first compound 0.316 µM",2.63%
same,"viability, T/C","second compound 1 µM, first compound 1 µM",4.14%
same,"viability, T/C","second compound 3.16 µM, first compound 0.00316 µM",24.3%
same,"viability, T/C","second compound 3.16 µM, first compound 0.01 µM",16.4%
same,"viability, T/C","second compound 3.16 µM, first compound 0.0316 µM",6.64%
same,"viability, T/C","second compound 3.16 µM, first compound 0.1 µM",2.73%
same,"viability, T/C","second compound 3.16 µM, first compound 0.316 µM",2.91%
same,"viability, T/C","second compound 3.16 µM, first compound 1 µM",2.78%
same,"viability, T/C","second compound 10 µM, first compound 0.00316 µM",24.7%
same,"viability, T/C","second compound 10 µM, first compound 0.01 µM",17.3%
same,"viability, T/C","second compound 10 µM, first compound 0.0316 µM",7.11%
same,"viability, T/C","second compound 10 µM, first compound 0.1 µM",2.96%
same,"viability, T/C","second compound 10 µM, first compound 0.316 µM",3.51%
same,"viability, T/C","second compound 10 µM, first compound 1 µM",3.29%
